Patent US20050288280A1, “Meloxicam in veterinary medicine” (Boehringer Ingelheim Vetmedica GmbH, priority 2004, published 2005)

What was measured:
[1] = tested on: dairy cows with clinical mild or moderate mastitis; test: Clinical field study: response thresholds to mechanical stimuli (hypersensitivity) in dairy cows with clinical mastitis; assay type: in vivo; conditions: adjunct to intramammary cefquinome, hind limbs, 6-8 examinations over 45 days, meloxicam groups vs antibiotics alone P<0.001
Description: Therefore, as already mentioned, dairy cows were studied to assess pain associated with moderate or mild mastitis. Based on the abovementioned study directed to the newly established method for the measurement of pain in food producing animals, a clinical field study was used to investigate, besides painful chronic conditions in cows with mild and moderate mastitis, the analgesic efficacy and long duration of action of meloxicam. In such clinical field study, meloxicam was administered only once as adjunct to intramammary antibiotic therapy and was compared to a second group where animals received re-treatments with meloxicam after 3 and 6 days. A third group received the antibiotic stand alone therapy. The distance between the hocks was measured as a proxy indicator of altered cow stance. Response thresholds to mechanical stimuli were measured on each hind limb using a modification of the method described by Nolan and others (A. Nolan, A. Livingston, R. Morris, and A. Waterman, Techniques for comparison of thermal and mechanical nociceptive stimuli in the sheep, J. Pharmacol. Methods 1987, 17, pp. 39-49). […] Response thresholds to mechanical stimuli were measured on each hind limb. […]

dairy cows = conditions: administered intramammarily in dairy cows; cited from earlier work

| SMILES | threshold responses to mechanical stimuli (mechanical hyperalgesia) [1] | long lasting analgesic activity (dairy cows) |
| --- | --- | --- |
| CO/N=C(\C(=O)N[C@@H]1C(=O)N2C(C(=O)[O-])=C(C[n+]3cccc4c3CCCC4)CS[C@H]12)c1csc(N)n1 [antibiotics, cefquinome] | greater differences |  |
| Cc1c(Nc2ncccc2C(=O)O)cccc1C(F)(F)F [flunixin meglumine] |  | did not achieve a long lasting analgesic activity |
